For twelve molecules, IC50 results are on record in patent publication US20090318446A1, “4-(1H-Indol-3-yl)-Pyrimidin-2-Ylamine Derivatives and Their Use in Therapy” (Cyclacel Limited, priority 2005, published 2009).

The target in experiment [1] is T1, Flt-3 (Homo sapiens, UniProt P36888).
T1 construct: purchased Upstate, Dundee, UK
T1 sequence (P36888 564-993 limits assumed): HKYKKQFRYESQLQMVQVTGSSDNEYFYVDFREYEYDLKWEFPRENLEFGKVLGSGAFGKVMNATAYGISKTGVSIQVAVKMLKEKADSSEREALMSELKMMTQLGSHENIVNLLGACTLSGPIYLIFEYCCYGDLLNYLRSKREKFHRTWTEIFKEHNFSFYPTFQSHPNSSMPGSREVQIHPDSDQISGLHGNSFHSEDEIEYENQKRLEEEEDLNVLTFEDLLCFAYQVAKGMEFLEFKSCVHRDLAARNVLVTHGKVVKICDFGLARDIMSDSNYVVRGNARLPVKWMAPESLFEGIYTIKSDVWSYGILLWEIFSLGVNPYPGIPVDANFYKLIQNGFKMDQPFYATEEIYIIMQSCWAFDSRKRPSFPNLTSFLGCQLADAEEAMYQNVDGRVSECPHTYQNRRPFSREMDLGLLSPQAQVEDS
The experiment is described as follows: Flt3 kinase assay. It is filed as biochemical. The method, then:
This was achieved by measurement of incorporation of radioactive phosphate from ATP into myelin basic protein (MBP) substrate, upon phosphorylation by commercially obtained Flt-3 Upstate, Dundee, UK). Assays were performed using 96-well plates and appropriate assay buffers (20 mM Tris, 25 mM β-glycerophosphate, 5 mM EGTA, 1 mM DTT, 1 mM sodium vanadate, pH 7.5), into which were added 5 ng of active enzyme with 0.4 mg/ml substrate (MBP). The reactions were initiated by addition of MgATP mix (15 mM MgCl2+100 μM ATP with 15-25 kBq per well of [γ-^32P]-ATP) and mixtures incubated for 30 min at 30° C. Reactions were stopped by addition of an equal volume of 75 mM aq orthophosphoric acid, followed by filtration through p81 filterplates (Whatman Polyfiltronics, Kent, UK). After washing 4 times with 75 mM aq orthophosphoric acid, plates were dried, scintillant added and incorporated radioactivity measured in a scintillation counter (TopCount, Packard Instruments, Pangbourne, Berks, UK). Compounds for kinase assay were made up as 10 mM stocks in DMSO and diluted into 10% DMSO in assay buffer. Data was analysed using curve-fitting software (XLfit version 4.0.2, IDBS, Guildford, Surrey, UK) to determine IC50 values (concentration of test compound which inhibits kinase activity by 50%).

The target of experiment [2] is CDK7/cyclin H (Homo sapiens, UniProt P50613). The experiment is described as follows: CDK 7 assay. It is filed as biochemical. The protocol: CTD peptide substrate (biotinyl-Ahx-(Tyr-Ser-Pro-Thr-Ser-Pro-Ser)4-NH2; 1-2 mg/mL) and recombinant human CDK7/cyclin H, CDK9/cyclin TI, or CDK9/cyclin K (0.5-2 μg) were incubated for 45 min at 30° C. in the presence of varying amounts of test compound in 20 mM MOPS pH 7.2, 25 mM β-glycerophosphate, 5 mM EGTA, 1 mM DTT, 1 mM sodium vanadate, 15 mM MgCl2, and 100 μM ATP (containing a trace amount of ^32PγATP) in a total volume of 25 μL in a 96-well microtiter plate. The reaction was stopped by placing the plate on ice for 2 min. Avidin (50 μg) was added to each well, and the plate was incubated at room temp for 30 min. The samples were transferred to a 96-well P81 filter plate, and washed (4×200 μL per well) with 75 mM phosphoric acid. Microscint 40 scintillation liquid (50 μL) was added to each well, and the amount of ^32P incorporation for each sample was measured using a Packard Topcount microplate scintillation counter.
CDK7/cyclin H, sequence (P50613 whole entry): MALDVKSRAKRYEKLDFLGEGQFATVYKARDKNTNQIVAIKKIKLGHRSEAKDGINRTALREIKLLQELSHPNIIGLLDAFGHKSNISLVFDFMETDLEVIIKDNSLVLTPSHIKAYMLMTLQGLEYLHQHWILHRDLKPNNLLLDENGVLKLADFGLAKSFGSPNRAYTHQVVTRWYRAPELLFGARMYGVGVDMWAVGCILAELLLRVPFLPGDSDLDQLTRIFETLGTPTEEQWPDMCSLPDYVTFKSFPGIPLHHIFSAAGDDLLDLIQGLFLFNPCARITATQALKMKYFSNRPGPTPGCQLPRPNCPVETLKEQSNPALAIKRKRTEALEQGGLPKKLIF
CDK7/cyclin H, sequence (P51946 whole entry partner): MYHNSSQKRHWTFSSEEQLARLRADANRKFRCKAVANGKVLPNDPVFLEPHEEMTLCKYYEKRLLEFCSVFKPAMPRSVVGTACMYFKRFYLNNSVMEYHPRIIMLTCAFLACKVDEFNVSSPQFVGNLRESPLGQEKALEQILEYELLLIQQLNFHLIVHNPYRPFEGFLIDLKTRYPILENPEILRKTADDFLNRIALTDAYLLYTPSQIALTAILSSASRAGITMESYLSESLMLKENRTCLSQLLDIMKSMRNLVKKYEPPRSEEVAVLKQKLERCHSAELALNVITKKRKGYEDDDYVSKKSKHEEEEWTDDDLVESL

Experiment [3] has as its target CDK4/cyclin D1 (Homo sapiens, UniProt P11802). The experiment is described as follows: Kinase assay CDK4/cyclin D1. It is filed as biochemical. The protocol: The compounds from the examples above were investigated for their ability to inhibit the enzymatic activity of various protein kinases. This was achieved by measurement of incorporation of radioactive phosphate from ATP into appropriate polypeptide substrates. Recombinant protein kinases and kinase complexes were produced or obtained commercially. Assays were performed using 96-well plates and appropriate assay buffers (typically 25 mM β-glycerophosphate, 20 mM MOPS, 5 mM EGTA, 1 mM DTT, 1 mM […], pH 7.4), into which were added 2-4 μg of active enzyme with appropriate substrates. The reactions were initiated by addition of Mg/ATP mix (15 mM MgCl2+100 μM ATP with 30-50 kBq per well of [γ-^32P]-ATP) and mixtures incubated as required at 30° C. Reactions were stopped on ice, followed by filtration through p81 filterplates or GF/C filterplates (Whatman Polyfiltronics, Kent, UK). After washing 3 times with 75 mM aq orthophosphoric acid, plates were dried, scintillant added and incorporated radioactivity measured in a scintillation counter (TopCount, Packard Instruments, Pangbourne, Berks, UK). Compounds for kinase assay were made up as 10 mM stocks in DMSO and diluted into 10% DMSO in assay buffer. Data was analysed using curve-fitting software (GraphPad Prism version 3.00 for Windows, GraphPad Software, San Diego Calif. USA) to determine IC50 values (concentration of test compound which inhibits kinase activity by 50%).

The test system of experiment [4] is Mia-PaCa-2. The experiment is described as follows: MTT cytotoxicity assay, Mia-PaCa-2. It is filed as cell-based. As to conditions: Homo sapiens, after incubation. The method, then: (§1) The compounds of the invention were subjected to a standard cellular proliferation assay using human tumour cell lines obtained from the ATCC (American Type Culture Collection, 10801 University Boulevard, Manessas, Va. 20110-2209, USA). […] C.; Thomas, D. G.; Darling, J. L. Anti Cancer Drugs 1996, 7, 331-8; Loveland, B. E.; Johns, T. G.; Mackay, 1. R.; Vaillant, F.; Wang, Z. X.; Hertzog, P. J. Biochemistry International 1992, 27, 501-10). In short: cells were seeded into 96-well plates according to doubling time and incubated overnight at 37° C. […] MTT was made up as a stock of 5 mg/mL in cell media and filter-sterilised. Media was removed from cells followed by a wash with 200 μL PBS. MTT solution was then added at 20 μL per well and incubated in the dark at 37° C. for 4 h MTT solution was removed and cells again washed with 200 μL PBS. MTT dye was solubilised with 200 μL per well of DMSO with agitation. Absorbance was read at 540 nm and data analysed using curve-fitting software (GraphPad Prism version 3.00 for Windows, GrapbPad Software, San Diego Calif. USA) to determine IC50 values (concentration of test compound which inhibits cell growth by 50%).
In general terms: Formazan colour is commonly taken as a measure of viable cells.

Experiment [5] relates to A2780. The experiment is described as follows: MTT cytotoxicity assay, A2780. The experiment is classed as cell-based. As to conditions: Homo sapiens, after incubation. The protocol:
as §1

Where [6] appears, read: Table 2, read-out: Kinase inhibition IC50 FLT3.
Setting [7] is: Table 3, read-out: Kinase inhibition Flt3.
Setting [8] is: Table 2, read-out: Kinase inhibition IC50 CDK7H.
[9] abbreviates: Table 2, read-out: Kinase inhibition IC50 CDK4D1.
Setting [10] is: Table 3, read-out: Kinase inhibition CDK7H.
[11] abbreviates: Table 3, read-out: Kinase inhibition CDK4D1.

Each structure is given as a SMILES string. Read-outs that look alike come from different tables or passages of the source. Bounds are passed on as bounds.

CDK4/cyclin D1, sequence (P11802 whole entry, species assumed): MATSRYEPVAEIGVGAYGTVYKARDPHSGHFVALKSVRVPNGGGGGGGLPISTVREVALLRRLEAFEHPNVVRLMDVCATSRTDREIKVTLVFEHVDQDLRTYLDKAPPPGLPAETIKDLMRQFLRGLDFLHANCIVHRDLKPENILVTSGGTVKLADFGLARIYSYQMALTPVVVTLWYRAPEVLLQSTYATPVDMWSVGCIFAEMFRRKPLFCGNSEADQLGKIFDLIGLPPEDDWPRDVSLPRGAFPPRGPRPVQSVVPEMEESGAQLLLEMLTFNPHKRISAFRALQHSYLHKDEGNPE
CDK4/cyclin D1, sequence (P24385 whole entry partner, species assumed): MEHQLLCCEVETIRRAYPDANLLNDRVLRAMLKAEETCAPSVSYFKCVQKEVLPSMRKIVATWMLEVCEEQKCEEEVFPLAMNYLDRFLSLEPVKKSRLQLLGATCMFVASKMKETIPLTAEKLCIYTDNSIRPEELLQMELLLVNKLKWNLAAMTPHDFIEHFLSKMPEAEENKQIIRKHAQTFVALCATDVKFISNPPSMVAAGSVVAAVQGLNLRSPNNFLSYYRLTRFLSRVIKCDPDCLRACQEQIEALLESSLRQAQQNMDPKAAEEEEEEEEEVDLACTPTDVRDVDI

Take `O=[N+]([O-])c1cccc(Nc2nccc(-c3c[nH]c4ccccc34)n2)c1` [Compound 2, [4-(1H-Indol-3-yl)-pyrimidin-2-yl]-(3-nitro-phenyl)-amine]: the IC50 was 0.13 µM in experiment [1] (setting [6]), 0.133 µM in experiment [1] (setting [7]), above 100 µM in experiment [2] (setting [8]) and above 100 µM in experiment [3] (setting [9]).

Regarding `Fc1ccc(Nc2nccc(-c3c[nH]c4ccccc34)n2)cc1` [Compound 3, (4-Fluoro-phenyl)-[4-(1H-indol-3-yl)-pyrimidin-2-yl]-amine], the IC50 is 0.27 µM in experiment [1] (setting [6]), 0.274 µM in experiment [1] (setting [7]), above 100 µM in experiment [2] (setting [8]) and above 100 µM in experiment [3] (setting [9]).

For `COc1ccc(Nc2nccc(-c3c[nH]c4ccccc34)n2)cn1` [Compound 4, [4-(1H-Indol-3-yl)-pyrimidin-2-yl]-(6-methoxy-pyridin-3-yl)-amine], the IC50 in experiment [1] (setting [6]) amounted to 0.15 µM; in experiment [1] (setting [7]), 0.148 µM; in experiment [2] (setting [8]), 5.4 µM; in experiment [2] (setting [10]), 5.44 µM; in experiment [3] (setting [9]), 1 µM; in experiment [3] (setting [11]), 1 µM.

Turning to `c1ccc2c(-c3ccnc(Nc4ccc(N5CCOCC5)cc4)n3)c[nH]c2c1` [Compound 5, [4-(1H-Indol-3-yl)-pyrimidin-2-yl]-(4-morpholin-4-yl-phenyl)-amine], the IC50 in experiment [4] was 2.4 µM; in experiment [1] (setting [6]), 0.052 µM; in experiment [1] (setting [7]), 0.0516 µM; in experiment [2] (setting [8]), above 10 µM; in experiment [5] it was 1.03 µM.

Take `CC(=O)N1CCN(c2ccc(Nc3nccc(-c4c[nH]c5ccccc45)n3)cc2)CC1` [Compound 6, 4-(1H-indol-3-yl)-N-(4-acetylpiperazin-1-ylphenyl)pyrimidin-2-amine]: the IC50 is 0.785 µM in experiment [4], 0.0133 µM in experiment [1] (setting [7]), 4.39 µM in experiment [3] (setting [11]) and 0.789 µM in experiment [5].

Turning to `c1ccc2c(-c3ccnc(Nc4ccc(N5CCNCC5)cc4)n3)c[nH]c2c1` [Compound 7, 4-(1H-indol-3-yl)-N-(4-piperazin-1-ylphenyl)pyrimidin-2-amine], the IC50 in experiment [4] worked out at 0.166 µM; in experiment [1] (setting [7]), 0.0127 µM; in experiment [2] (setting [10]), 2.53 µM; in experiment [3] (setting [11]), 0.426 µM; in experiment [5], 0.086 µM.

As to `CC1CN(c2ccc(Nc3nccc(-c4c[nH]c5ccccc45)n3)cc2)CC(C)O1` (stereo not shown) [Compound 9], the IC50 in experiment [4] was determined as 6.23 µM; in experiment [1] (setting [7]), 0.0298 µM; in experiment [2] (setting [10]), 6.67 µM; in experiment [3] (setting [11]), 5.46 µM; in experiment [5], 5.45 µM.

In the case of `CN(C)c1ccc(Nc2nccc(-c3c[nH]c4ccccc34)n2)cc1` [Compound 10, N′-[4-(1H-indol-3-yl)pyrimidin-2-yl]-N,N-dimethylbenzene-1,4-diamine], the IC50 came out at 5.48 µM in experiment [4]; 0.0849 µM in experiment [1] (setting [7]); 5.23 µM in experiment [2] (setting [10]); 5.78 µM in experiment [3] (setting [11]); 0.485 µM in experiment [5].

In the case of `COc1cc(Nc2nccc(-c3c[nH]c4ccccc34)n2)cc(OC)c1OC` [Compound 12, 4-(1H-indol-3-yl)-N-(3,4,5-trimethoxyphenyl)pyrimidin-2-amine], the figures for the IC50 in experiment [4], in experiment [1] (setting [7]) and in experiment [5] were 0.077 µM, 0.0013 µM and 0.043 µM, respectively.

With `COc1cc(Nc2nccc(-c3c[nH]c4ccccc34)n2)ccc1N1CCOCC1` [Compound 13, 4-(1H-indol-3-yl)-N-(3-methoxyl-4-morpholin-4-ylphenyl)pyrimidin-2-amine], the figures for the IC50 in experiment [4], in experiment [1] (setting [7]) and in experiment [5] were 6.73 µM, 0.0024 µM and 2.48 µM, respectively.

Regarding `CC(=O)N1CCN(c2ccc(Nc3nccc(-c4c(C)[nH]c5ccccc45)n3)cc2)CC1` [Compound 22], the IC50 in experiment [4] was found to be 0.778 µM; in experiment [1] (setting [7]), 0.011 µM; in experiment [2] (setting [10]), 6.66 µM; in experiment [5], 0.299 µM.

For the molecule `CC(=O)N1CCN(c2ccc(Nc3nccc(-c4c[nH]c5c(C)cccc45)n3)cc2)CC1` [Compound 23], the IC50 in experiment [4] was found to be 0.789 µM; in experiment [1] (setting [7]) it was 0.0332 µM; in experiment [2] (setting [10]), 3.47 µM; in experiment [5] it was 0.448 µM.
